According to patent publication US20140094413A1, “HEPATOCYTE GROWTH FACTOR (HGF) MIMICS AS THERAPEUTIC AGENTS” (WASHINGTON STATE UNIVERSITY, priority 2012, published 2014):
Where “and” joins values, the source holds several entries; their conditions need not be identical. Equal values may be shown once. Entries after “also recorded” stand apart in the source; their conditions may differ. Where a SMILES comes first, the peptide text is derived from it. [ ]: non-standard residue; d: D form. The star is where a group is joined. Nle = CCCC[C@H](N)C(=O)O; Hexanoyl = CCCCCC(=O)*; Ahx = NCCCCCC(=O)O

Tests used:
[1] = Brain distribution of 3H-Dihexa after carotid infusion; assay type: in vivo, rat
Experimental: FIG. 44. […] Rats fitted with a carotid cannula were anesthetized and infused with 0.5 ml of isotonic saline containing 10 μCi of 3H-Dihexa and 2 μCi ^14C-Inulin, a vascular marker. Thirty minutes after infusion rats were decapitated, the brains removed, and various brain regions dissected. The tissues were then weighed and solubilized with NCS and 10 ml of scintillation was added. Samples were counted with a scintillation counter using two different windows to quantitate both ^3H and ^14C counts. ^3H/^14Cs were determined so that blood derived Dihexa contamination of tissues could be determined. The average ^3H/^14C from blood was 1687.

[2] = test system: CA1 neurons in coronal slices of rat hippocampus; experiment: Hippocampal long-term potentiation with theta burst stimulation; assay type: cell-based; conditions: Dihexa 1 μM applied 10 minutes prior to TBS
Experimental: FIG. 45. Effect of Dihexa (Hex) on hippocampal long-term potentiation (LTP) generated with theta burst (TBS) stimulation. LTP was monitored at CA1 neurons in coronal slices of rat hippocampus. Dihexa (1 μM) was applied 10 minutes prior to TBS. 1N=4. Dihexa application augmented LTP.

hippocampal neurons [3] = experiment: Immunocytochemistry: correlation of spines with synaptic markers; assay type: cell-based, rat; conditions: 10^−12 M, 5 days
Experimental: (§1) Transfected neurons were treated, fixed and stained. Briefly, cells were permeablized with 0.1% Triton X-100 detergent (Bio-Rad; Hercules, Calif.) for 10 minutes. An 8% bovine serum albumin (Intergen Company; Burlington, Mass.) in PBS was used to prevent non-specific binding for one hour at R.T.; Primary antibody incubations were at a 1:2500 dilution (see below) in 1% BSA in PBS at 4° C. overnight. Secondary antibody, 1:3000 Alexafluor 488 goat-anti-mouse (Invitrogen: Carlsbad, Calif.) was applied for two hours at room temperature. Coverslips were mounted with ProLong Gold anti-fade reagent (Invitrogen; Carlsbad, Calif.) and all washes were done with PBS. Imaging and analysis were performed as described above. For presynaptic excitatory transmission the VGLUT1 (Synaptic Systems, Goettingen, Germany) marker (Balschun, Moechars et al.) was employed and for general presynaptic transmission synapsin1 (Synaptic Systems, Goettingen, Germany) (Ferreira and Rapoport 2002) was applied. A postsynaptic function was established by PSD-95 (Milipore, Billerica, Mass.) (El-Husseini, Schnell et al. 2000). In each instance the total number of spines was counted for the treatment groups, control, Nle1-AngIV and Dihexa, to ensure an active phenotype. The total number of actin enriched spines adjacent to VGLUT1 or Synapsin were counted and converted to a percentage as the percent correlation of treatment-induced spines to presynaptic markers is a strong indicator of ability to transmit excitatory signals.
as §1, with “fixed and stained as previously described in Chapter two. Briefly, cells” for “fixed and stained. Briefly, cells”, “enriched spines (red) adjacent to” for “enriched spines adjacent to”

Blood stability studies = conditions: not shown
human HGF = target: T1, human HGF (Homo sapiens, UniProt P14210); experiment: HGF dimerization; assay type: biochemical; conditions: 30 minutes in the presence of heparin; N=6
T1 construct: purchased R&D Systems (Minneapolis, Minn.)
T1 sequence (P14210 32-728): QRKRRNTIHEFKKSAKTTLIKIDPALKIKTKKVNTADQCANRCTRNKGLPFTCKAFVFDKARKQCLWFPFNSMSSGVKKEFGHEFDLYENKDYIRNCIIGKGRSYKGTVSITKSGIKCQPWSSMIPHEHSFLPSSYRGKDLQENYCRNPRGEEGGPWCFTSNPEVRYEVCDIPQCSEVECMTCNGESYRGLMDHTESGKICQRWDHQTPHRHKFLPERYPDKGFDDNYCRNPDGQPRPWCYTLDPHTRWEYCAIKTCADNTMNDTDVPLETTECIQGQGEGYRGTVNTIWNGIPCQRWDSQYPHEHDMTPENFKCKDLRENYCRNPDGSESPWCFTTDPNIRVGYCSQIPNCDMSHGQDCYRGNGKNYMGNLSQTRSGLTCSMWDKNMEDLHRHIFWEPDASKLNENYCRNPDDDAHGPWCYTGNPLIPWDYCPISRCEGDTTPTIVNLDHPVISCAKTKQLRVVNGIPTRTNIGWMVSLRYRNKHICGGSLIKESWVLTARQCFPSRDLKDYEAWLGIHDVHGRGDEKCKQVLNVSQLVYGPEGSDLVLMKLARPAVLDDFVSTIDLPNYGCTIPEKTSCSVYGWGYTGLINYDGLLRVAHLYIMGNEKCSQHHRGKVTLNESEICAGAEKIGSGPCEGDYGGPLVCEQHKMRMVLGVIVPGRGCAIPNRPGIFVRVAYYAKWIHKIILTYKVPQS
Experimental: HGF dimerization was assessed using PAGE followed by silver staining (Kawas et al., 2011). Human HGF at a concentration of 0.08 ng/μl with or without 6-AH analogs was incubated with heparin at a final concentration of 5 μg/ml. Loading buffer was then added to each sample and the mixture separated by native PAGE using gradient Criterion XT precast gels (4-12% Bis-Tris; Biorad Laboratories, Hercules, Calif.). Next the gel was silver stained for the detection of the HGF monomers and dimers. Bands were quantitated from digital images using a UVP phosphoimager (Upland, Calif.).

[4] = test system: Dissociated hippocampal neurons; experiment: Neuroprotection from growth factor deprivation; assay type: cell-based; conditions: starved 72 hrs +/−HGF 5 ng/ml; Dihexa 10^−10 M and 10^−8M
Experimental: FIG. 39. […] Dissociated hippocampal neurons were starved for 72 hrs+/−HGF at sub-threshold concentrations 5 ng/ml and or Dihexa at 2 different concentrations 10^−10 M and 10^−8M. (**p<0.001,***p<0.0001; Mean+/−SEM).

[5] = Metabolic stability in rat serum; assay type: in vitro ADME
aged rats = experiment: Morris water maze, aged rat model; assay type: in vivo; conditions: aged rats of mixed sex; oral Dihexa 2 mg/kg/day, 8 days
Experimental: Swim speed was determined from these values.

hippocampal neurons [6] = experiment: Immunocytochemistry: correlation of spines with synaptic markers; assay type: cell-based, rat; conditions: HGF 10 ng/ml

Compound: CCCCCC(=O)N[C@@H](Cc1ccc(O)cc1)C(=O)N[C@H](C(=O)NCCCCCC(N)=O)[C@@H](C)CC [Dihexa, N-hexanoic-Tyr-Ile-(6)-aminohexanoic amide] (Hexanoyl-Tyr-Ile-[Ahx]-NH2)
- Distribution into brain regions ([1]; thirty minutes after carotid infusion of 3H-Dihexa with 14C-Inulin): concentrated in multiple brain regions
- Brain level relative to blood ([1]; thirty minutes after delivery): 40 × blood
- Average 3H/14C from blood ([1]; thirty minutes after infusion): 1687
- Long-term potentiation [2]: enhances LTP; also recorded: augmented LTP
- % Correlation PSD-95 (hippocampal neurons [3]): 98.71%
- % Correlation Synapsin (hippocampal neurons [3]): 96.3%
- % Correlation VGLUT1 (hippocampal neurons [3]): 94.4%
- Number of spines/50 μm (PSD-95 experiment) (hippocampal neurons [3]): 43 spines/50 μm
- Number of spines/50 μm (Synapsin experiment) (hippocampal neurons [3]): 37 spines/50 μm
- Number of spines/50 μm (VGLUT1 experiment) (hippocampal neurons [3]): 44.2 spines/50 μm and 44 spines/50 μm
- Time stable in the blood (Blood stability studies): over 5 hours
- HGF dimerization (human HGF): blocks HGF dimerization
- Protection of neurons from growth factor deprivation [4]: protects neurons from growth factor deprivation
- t1/2 in rat serum [5]: 5.5 h
- Water maze performance of aged rats vs untreated controls (aged rats): preformed significantly better in the water maze than untreated rats; also recorded: performed significantly better than untreated controls; also recorded: significantly improved water maze performance

Compound: CCCC[C@H](N)C(=O)N[C@@H](Cc1ccc(O)cc1)C(=O)N[C@H](C(=O)N[C@@H](Cc1c[nH]cn1)C(=O)N1CCC[C@H]1C(=O)N[C@@H](Cc1ccccc1)C(=O)O)[C@@H](C)CC [Nle1-AngIV, reference compound] (H-[Nle]YIHPF-OH; N-terminus and C-terminus assumed)
- % Correlation PSD-95 (hippocampal neurons [3]): 97.38%
- % Correlation Synapsin (hippocampal neurons [3]): 94.2%
- % Correlation VGLUT1 (hippocampal neurons [3]): 95.1%
- Number of spines/50 μm (PSD-95 experiment) (hippocampal neurons [3]): 36 spines/50 μm
- Number of spines/50 μm (Synapsin experiment) (hippocampal neurons [3]): 31 spines/50 μm
- Number of spines/50 μm (VGLUT1 experiment) (hippocampal neurons [3]): 39.4 spines/50 μm and 39 spines/50 μm

Compound: HGF: Hepatocyte growth factor, recombinant, purchased from R&D Systems
- Percent correlation of spines to Synapsin (hippocampal neurons [6]): 98%
- Mean number of spines per 50 μm dendrite length (hippocampal neurons [6]; 5 days): 33 spines per 50 μm dendrite length
